Experimental data taken from ChEMBL document CHEMBL4665541, “Search for new therapeutic options for the uncommon pathogen Mycobacterium chimaera: an open drug discovery approach” (Lancet Microbe, 2021).

These substances were tested on Mycobacterium intracellulare subsp. chimaera (assay: (§1) Inhibition of mycobacterial growth using the resazurin microtitre cell viability assay (REMA), compounds at final concentration of 20 µM (2% v/v DMSO). Hits were classed as compounds that inhibited bacterial growth by 70% or more compared to drug-free controls.). Conditions: NCTC13781.
Type: functional, organism-based
Design: conc 20 uM

Substance | Survival
MMV676449 | 84.8%
MMV676461 | 104%
MMV676468 | 96.9%
MMV676470 | 100%
MMV676472 | 92.2%
MMV676474 | 88.6%
MMV676476 | 100%
MMV676477 | 73.1%
MMV676478 | 96.5%
MMV676480 | 104%
MMV676492 | 97.8%
MMV676501 | 91.8%
MMV676509 | 89.8%
MMV676512 | 95.9%
MMV676520 | 85.8%
MMV676524 | 97%
MMV676526 | 74.8%
MMV676528 | 102%
MMV676536 | 101%
MMV676539 | 95.1%
MMV676554 | 41.2%
MMV676555 | 39%
MMV676558 | 100%
MMV676571 | 100%
MMV676584 | 90.2%
MMV676588 | 76.5%
MMV676589 | 89%
MMV676597 | 99.5%

Substance | Survival
MMV676599 | 102%
MMV676600 | 90.1%
MMV676602 | 111%
MMV676603 | 101%
MMV676604 | 104%
MMV676605 | 110%
MMV676877 | 106%
MMV676881 | 101%
MMV687138 | 104%
MMV687145 | 130%
MMV687146 | 4.5%
MMV687170 | 89.9%
MMV687172 | 101%
MMV687180 | 105%
MMV687188 | 73.5%
MMV687189 | 98.5%
MMV687239 | 97.5%
MMV687243 | 106%
MMV687246 | 110%
MMV687248 | 110%
MMV687251 | 88.3%
MMV687254 | 107%
MMV687273 | 110%
MMV687696 | 75.7%
MMV687699 | 93.8%
MMV687700 | 88%
MMV687703 | 3.71%

These substances were tested on Mycobacterium tuberculosis (assay: as §1). Conditions: H37Rv.
Type: functional, organism-based
Design: conc 20 uM

Substance | Survival
MMV676449 | 90.2%
MMV676461 | 78.3%
MMV676468 | 10.5%
MMV676470 | 90.7%
MMV676472 | 120%
MMV676474 | 60.1%
MMV676476 | 72.8%
MMV676477 | 4.54%
MMV676478 | 44.5%
MMV676480 | 106%
MMV676492 | 83.1%
MMV676501 | 14%
MMV676509 | 85.9%
MMV676512 | 6.01%
MMV676520 | 43.4%
MMV676524 | 23.4%
MMV676526 | 97.3%
MMV676528 | 88.7%
MMV676536 | 90.9%
MMV676539 | 29.7%
MMV676554 | 29.4%
MMV676555 | 71.2%
MMV676558 | 90.9%
MMV676571 | 59.4%
MMV676584 | 66.8%
MMV676588 | 19.7%
MMV676589 | 70.1%
MMV676597 | 98%

Substance | Survival
MMV676599 | 88.2%
MMV676600 | 91.1%
MMV676602 | 105%
MMV676603 | 38.4%
MMV676604 | 95%
MMV676605 | 99.5%
MMV676877 | 90.2%
MMV676881 | 98.9%
MMV687138 | 56.3%
MMV687145 | 42.6%
MMV687146 | 77.5%
MMV687170 | 52.7%
MMV687172 | 129%
MMV687180 | 74.6%
MMV687188 | 43.4%
MMV687189 | 58.1%
MMV687239 | 68.1%
MMV687243 | 87.1%
MMV687246 | 90.9%
MMV687248 | 31.8%
MMV687251 | 5.28%
MMV687254 | 106%
MMV687273 | 31.5%
MMV687696 | 44.7%
MMV687699 | 53.6%
MMV687700 | 84.1%
MMV687703 | 4.55%

These substances were tested on Mycobacteroides abscessus (assay: as §1). Conditions: ATCC19977.
Type: functional, organism-based
Design: conc 20 uM

Substance | Survival
MMV676449 | 102%
MMV676461 | 114%
MMV676468 | 103%
MMV676470 | 115%
MMV676472 | 115%
MMV676474 | 99%
MMV676476 | 108%
MMV676477 | 111%
MMV676478 | 111%
MMV676480 | 104%
MMV676492 | 101%
MMV676501 | 104%
MMV676509 | 113%
MMV676512 | 100%
MMV676520 | 100%
MMV676524 | 114%
MMV676526 | 103%
MMV676528 | 115%
MMV676536 | 119%
MMV676539 | 99.7%
MMV676554 | 109%
MMV676555 | 123%
MMV676558 | 110%
MMV676571 | 115%
MMV676584 | 115%
MMV676588 | 102%
MMV676589 | 116%
MMV676597 | 113%

Substance | Survival
MMV676599 | 115%
MMV676600 | 125%
MMV676602 | 95.5%
MMV676603 | 112%
MMV676604 | 119%
MMV676605 | 122%
MMV676877 | 107%
MMV676881 | 99.4%
MMV687138 | 102%
MMV687145 | 108%
MMV687146 | 17.2%
MMV687170 | 114%
MMV687172 | 98.3%
MMV687180 | 107%
MMV687188 | 110%
MMV687189 | 104%
MMV687239 | 108%
MMV687243 | 113%
MMV687246 | 119%
MMV687248 | 110%
MMV687251 | 116%
MMV687254 | 113%
MMV687273 | 111%
MMV687696 | 109%
MMV687699 | 114%
MMV687700 | 107%
MMV687703 | 105%
